Experimental data taken from patent US20200166671A1, “LIPOIC ACID HYDROGELS” (UNIVERSIDADE DE SANTIAGO DE COMPOSTELA, priority 2017, published 2020).

Assays:
[1] = Demulcent loading of hydrogel discs functionalized with CD; assay type: physicochemical; settings: 20° C., aqueous demulcent solution
Experimental: Next, a different demulcent was loaded in each disc functionalized with CD.
The weighed hydrogel discs were placed in 5 or 10 mL of aqueous polysorbate 80 solutions (0.2; 0.5 or 1 mg/mL) and kept at 20° C. under magnetic stirring (80 rpm) for 24 hours. Absorbance of the medium was monitored at 234 nm (Agilent […] UV/Vis spectrophotometer, Germany). The amount of loaded polysorbate 80 was estimated from the difference between the amounts in the loading medium before and after the loading tests.
The weighed hydrogel discs were placed in 5 or 10 mL of aqueous PEG4000 solutions (0.1 mg/mL), kept at 20° C. under magnetic stirring (80 rpm) for 48 hours. Aliquots of loading medium were analyzed by means of HPLC. The loaded amount of PEG4000 was estimated from the difference between the amounts in the loading medium before and after the loading tests.
(§1) The weighed hydrogel discs were introduced in vials containing 10 mL of aqueous ALA solution (saturated, ˜0.8 mg/mL). The vials remained under oscillating agitation (150 osc/min) at 20° C. At times 24 and 48 h, a sample of 3 mL of the loading solution was taken and absorbance was measured at 334 nm (Agilent 8453 UV/VIS, Germany). The amount of ALA loaded for every hydrogel was calculated by the difference between the initial content in the loading solution and the remaining content at the end of the test.
The loading results, measured in amount of demulcent for every gram of dry mass of hydrogel, are shown below: […]

[2] = Saturated aqueous ALA solution; assay type: physicochemical
Experimental: as §1

peroxidase = settings: Andrade et al., Exp Eye Res. 2014; cited from earlier work
[3] = Andrade et al., Exp Eye Res. 2014; cited from earlier work

| Compound | amount of demulcent for every gram of dry mass of hydrogel ([1]; loading 24 h) | amount of demulcent for every gram of dry mass of hydrogel ([1]; loading 48 h) | concentration of saturated aqueous ALA solution [2] | peroxidase activity (peroxidase) | tear production [3] |
| --- | --- | --- | --- | --- | --- |
| Polysorbate 80 | 1 mg/g |  |  |  |  |
| O=C(O)CCCC[C@@H]1CCSS1 [α-lipoic acid] | 57 mg/g | 58 mg/g | ~800 µg/mL | increases peroxidase activity | increase in tear production |
